Assay results: patent US20200178526A1, “Emulsifiable Concentrates” (priority 2016, published 2020)
Where two headings read alike, the source gives them in different places.

Columns and labels:
[1] = Solubility screening of bifenthrin in various solvents; assay type: physicochemical
Description: Four-milliliter (mL) vials are charged with bifenthrin (10 to 50 wt %), a stir bar, and solvent (90 to 50 wt %). The vials are capped and taped to seal. The vials are secured in a vial rack and shaken on a laboratory shaker for 12 hours at ambient lab temperature (21° C.) and humidity (51%). After 12 hours each sample set is evaluated for solubility of solid:
Yes—Homogeneous clear solution
No—Solids present in the sample

[2] = obtained from Hansen's book, pages 399 and 418; cited from earlier work
[3] = bifenthrin 10 wt % in solvent, shaken 12 hours at 21° C., humidity 51%
[4] = bifenthrin 20 wt % in solvent, shaken 12 hours at 21° C., humidity 51%
[5] = bifenthrin 30 wt % in solvent, shaken 12 hours at 21° C., humidity 51%
[6] = bifenthrin 40 wt % in solvent, shaken 12 hours at 21° C., humidity 51%
[7] = bifenthrin 50 wt % in solvent, shaken 12 hours at 21° C., humidity 51%

Molecule | Solubility of Bifenthrin, 10 wt % [1] | Solubility of Bifenthrin, 20 wt % [1] | Solubility of Bifenthrin, 30 wt % [1] | Solubility of Bifenthrin, 40 wt % [1] | Solubility of Bifenthrin, 50 wt % [1] | Hansen Parameter δH (hydrogen bonding) [2] | Hansen Parameter δP (polar) [2] | Solubility of Bifenthrin, 10 wt % [1, 3] | Solubility of Bifenthrin, 20 wt % [1, 4] | Solubility of Bifenthrin, 30 wt % [1, 5] | Solubility of Bifenthrin, 40 wt % [1, 6] | Solubility of Bifenthrin, 50 wt % [1, 7]
CCCCOCCOCCOC(C)=O [BUTYL CARBITOL ™ ACETATE, diethylene glycol n-butyl ether acetate] | YES | YES | YES | NO | NO | 8.2 (J/cc)^1/2 | 4.1 (J/cc)^1/2 | – | – | – | – | –
CCCCOCCOC(C)=O [BUTYL CELLOSOLVE ™ ACETATE, ethylene glycol n-butyl ether acetate] | – | – | – | – | – | 8.8 (J/cc)^1/2 | 4.5 (J/cc)^1/2 | YES | YES | YES | YES | NO
CCOCCOCCO [CARBITOL ™, diethylene glycol monoethyl ether] | YES | YES | NO | NO | NO | – | – | – | – | – | – | –
CCCCCCCCCCCC(=O)OCC [DIAMOSOLV ™ 323, ethyl laurate] | YES | YES | NO | NO | NO | – | – | – | – | – | – | –
CC(CO)OCC(C)Oc1ccccc1 (centres unmarked) [DOWANOL ™ DiPPH, dipropylene glycol phenyl ether] | YES | NO | NO | NO | NO | – | – | – | – | – | – | –
OCCOc1ccccc1 [DOWANOL ™ EPH, ethylene glycol phenyl ether] | – | – | – | – | – | – | – | NO | NO | NO | NO | NO
CC(=O)OCC(C)OC(C)=O (centres unmarked) [DOWANOL ™ PGDA, propylene glycol diacetate] | YES | YES | YES | NO | NO | – | – | – | – | – | – | –
CC(O)COc1ccccc1 (centres unmarked) [DOWANOL ™ PPH, propylene glycol phenyl ether] | YES | NO | NO | NO | NO | – | – | – | – | – | – | –
CCCCOC(C)COC(C)COC(C)CO (centres unmarked) [DOWANOL ™ TPNB, tripropylene glycol n-butyl ether] | YES | YES | NO | NO | NO | – | – | – | – | – | – | –
CCCCOCCOC(=O)c1ccccc1 [XU40782.00, ethylene glycol n-butyl ether benzoate] | YES | YES | YES | NO | NO | – | – | – | – | – | – | –
polyethylene glycol monophenyl ether [DOWANOL ™ EPH6] | – | – | – | – | – | – | – | NO | NO | NO | NO | NO
